Reference: patent publication US20250296953A1, “3,4-THIAZOLO-STEROIDS AND METHODS OF MAKING AND USING THE SAME” (Arkansas State University - Jonesboro, priority 2018, published 2025)
Read-outs that look alike come from different tables or passages of the source.

How the values were obtained:
[1] = system: gliosarcoma (SF-539); test: NCI 60 five dose screen
[2] = system: SK-MEL-5; test: Melanoma cytotoxicity assay (resazurin); format: cell-based; conditions: SK-MEL-5 melanoma cells, 24 hours with compound, resazurin; concentration not given
In short: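 ~4000 cells/well, 24 h attach, 37° C/5% CO2; cpd triplicate, 24 h; resazurin 6 h; fluor 544/590 nm. % viability vs DMSO after media-blank subtraction; IC50 from dilution series, sigmoidal fit.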

[3] = system: SK-MEL-25; test: Melanoma cytotoxicity assay (resazurin); format: cell-based; conditions: SK-MEL-25 melanoma cells, 24 hours with compound, resazurin; concentration not given
In short: (§1)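 Readout: resazurin fluorescence (ex 544, em 590 nm) after 6 h dye incubation, following 24 h compound exposure of ~4000 cells/well. Viability = background-subtracted signal over DMSO wells; IC50 by sigmoidal curve fitting.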

[4] = system: SK-MEL-28; test: Melanoma cytotoxicity assay (resazurin); format: cell-based; conditions: SK-MEL-28 melanoma cells, 24 hours with compound, resazurin; concentration not given
In short: as §1

[5] = system: SF-295; test: NCI 60 one dose screen; format: cell-based, human; conditions: one dose; CNS Cancer; SF-295
[6] = system: 60 different human tumor cell lines; test: cells

Compound: C[C@]12CCc3sc(NCCc4ccccc4)nc3C1=CC[C@@H]1[C@@H]2CC[C@]2(C)C(=O)CC[C@@H]12 [IIa.2, (1S,2R,13R,14S,18S)-2,18-dimethyl-7-(2-phenylethylamino)-6-thia-8-azapentacyclo [11.7.0.02,10.05,9.014,18]icosa-5(9),7,10-trien-17-one]
- GI50 ([1]; Homo sapiens, SF-539): 1.69 µM
- CC50 ([1]; Homo sapiens, SF-539, read-out: LC50): 7.75 µM
- TGI ([1]; SF-539 (CNS Cancer), five dose): 3.62E−6
- SK-MEL-5 (% inhibition) [2]: 73%
- SK-MEL-25 (% inhibition) [3]: 59%
- SK-MEL-28 (% inhibition) [4]: 79%
- Growth Percent [5]: 68.44%
- GI50 ([6]; 60 cell): 3.35 µM
- CC50 ([6]; 60 cell, read-out: LC50): > 100 µM
- GI50 ([6]; 786-0): 2.82 µM
- CC50 ([6]; 786-0, read-out: LC50): > 100 µM
- GI50 ([6]; A498): 4.43 µM
- CC50 ([6]; A498, read-out: LC50): > 100 µM
- GI50 ([6]; A549): 7 µM
- CC50 ([6]; A549, read-out: LC50): > 100 µM
- GI50 ([6]; ACHN): 1.96 µM
- CC50 ([6]; ACHN, read-out: LC50): 7.19 µM
- GI50 ([6]; BT-549): 2.42 µM
- CC50 ([6]; BT-549, read-out: LC50): > 100 µM
- GI50 ([6]; CAKI-1): 3.13 µM
- CC50 ([6]; CAKI-1, read-out: LC50): > 100 µM
- GI50 ([6]; CCRF-CEM): 2.63 µM
- CC50 ([6]; CCRF-CEM, read-out: LC50): > 100 µM
- GI50 ([6]; COLO 205): 3.03 µM
- CC50 ([6]; COLO 205, read-out: LC50): > 100 µM
- GI50 ([6]; DU-145): 3.64 µM
- CC50 ([6]; DU-145, read-out: LC50): > 100 µM
- GI50 ([6]; EKVX): 90.1 µM
- CC50 ([6]; EKVX, read-out: LC50): > 100 µM
- GI50 ([6]; HCC 2998): 8.19 µM
- CC50 ([6]; HCC 2998, read-out: LC50): > 100 µM
- GI50 ([6]; HCT-15): 1.57 µM
- CC50 ([6]; HCT-15, read-out: LC50): 88.7 µM
- GI50 ([6]; HCT-116): 2.87 µM
- CC50 ([6]; HCT-116, read-out: LC50): > 100 µM
- GI50 ([6]; HL-60): 2.93 µM
- CC50 ([6]; HL-60, read-out: LC50): > 100 µM
- GI50 ([6]; HOP-62): 8.52 µM
- CC50 ([6]; HOP-62, read-out: LC50): > 100 µM
- GI50 ([6]; HOP-92): 2.75 µM
- CC50 ([6]; HOP-92, read-out: LC50): > 100 µM
- GI50 ([6]; HT-29): 2.21 µM
- CC50 ([6]; HT-29, read-out: LC50): > 100 µM
- GI50 ([6]; Hs-578T): 2.85 µM
- CC50 ([6]; Hs-578T, read-out: LC50): > 100 µM
- GI50 ([6]; IGROV-1): 2.6 µM
- CC50 ([6]; IGROV-1, read-out: LC50): 65.6 µM
- GI50 ([6]; K562): 2.89 µM
- CC50 ([6]; K562, read-out: LC50): > 100 µM
- GI50 ([6]; KM12): 3.6 µM
- CC50 ([6]; KM12, read-out: LC50): > 100 µM
- GI50 ([6]; LOX IMVI): 1.7 µM
- CC50 ([6]; LOX IMVI, read-out: LC50): 5.91 µM
- GI50 ([6]; M14): 3.63 µM
- CC50 ([6]; M14, read-out: LC50): > 100 µM
- GI50 ([6]; MCF7): 2.68 µM
- CC50 ([6]; MCF7, read-out: LC50): > 100 µM
- GI50 ([6]; MDA-MB-231): 3.4 µM
- CC50 ([6]; MDA-MB-231, read-out: LC50): > 100 µM
- GI50 ([6]; MDA-MB-435): 3.01 µM
- CC50 ([6]; MDA-MB-435, read-out: LC50): > 100 µM
- GI50 ([6]; MDA-MB-468): 2.99 µM
- CC50 ([6]; MDA-MB-468, read-out: LC50): > 100 µM
- GI50 ([6]; MOLT-4): 2.58 µM
- CC50 ([6]; MOLT-4, read-out: LC50): > 100 µM
- GI50 ([6]; Malme-3M): 2.18 µM
- CC50 ([6]; Malme-3M, read-out: LC50): > 100 µM
- GI50 ([6]; NCI-H23): 5.03 µM
- GI50 ([6]; NCI-H226): 2.42 µM
- CC50 ([6]; NCI-H226, read-out: LC50): > 100 µM
- GI50 ([6]; NCI-H322M): 96.9 µM
- CC50 ([6]; NCI-H322M, read-out: LC50): > 100 µM
- GI50 ([6]; NCI-H460): 4.47 µM
- CC50 ([6]; NCI-H460, read-out: LC50): > 100 µM
- GI50 ([6]; NCI-H522): 1.78 µM
- CC50 ([6]; NCI-H522, read-out: LC50): 7.45 µM
- GI50 ([6]; NCI/ADR-RES): 2.31 µM
- CC50 ([6]; NCI/ADR-RES, read-out: LC50): > 100 µM
- GI50 ([6]; OVCAR-3): 2.08 µM
- CC50 ([6]; OVCAR-3, read-out: LC50): > 100 µM
- GI50 ([6]; OVCAR-4): 3.93 µM
- CC50 ([6]; OVCAR-4, read-out: LC50): > 100 µM
- GI50 ([6]; OVCAR-5): 4.44 µM
- CC50 ([6]; OVCAR-5, read-out: LC50): > 100 µM
- GI50 ([6]; OVCAR-8): 2.77 µM
- CC50 ([6]; OVCAR-8, read-out: LC50): > 100 µM
- GI50 ([6]; RXF 393): 1.73 µM
- CC50 ([6]; RXF 393, read-out: LC50): 30.9 µM
- GI50 ([6]; SF-268): 4.62 µM
- CC50 ([6]; SF-268, read-out: LC50): > 100 µM
- GI50 ([6]; SK-MEL-2): 17 µM
- CC50 ([6]; SK-MEL-2, read-out: LC50): > 100 µM
- GI50 ([6]; SK-MEL-5): 4.57 µM
- CC50 ([6]; SK-MEL-5, read-out: LC50): > 100 µM
- GI50 ([6]; SK-MEL-28): 3.37 µM
- CC50 ([6]; SK-MEL-28, read-out: LC50): > 100 µM
- GI50 ([6]; SK-OV-3): > 100 µM
- CC50 ([6]; SK-OV-3, read-out: LC50): > 100 µM
- GI50 ([6]; SN12C): 2.89 µM
- CC50 ([6]; SN12C, read-out: LC50): > 100 µM
- GI50 ([6]; SNB-19): 97.5 µM
- CC50 ([6]; SNB-19, read-out: LC50): > 100 µM
- GI50 ([6]; SNB-75): 2.67 µM
- CC50 ([6]; SNB-75, read-out: LC50): > 100 µM
- GI50 ([6]; SW-620): 2.3 µM
- CC50 ([6]; SW-620, read-out: LC50): > 100 µM
- GI50 ([6]; T47D): 3.05 µM
- CC50 ([6]; T47D, read-out: LC50): > 100 µM
- GI50 ([6]; TK-10): 4.15 µM
- CC50 ([6]; TK-10, read-out: LC50): > 100 µM
- GI50 ([6]; U-251): 4.97 µM
- CC50 ([6]; U-251, read-out: LC50): > 100 µM
- GI50 ([6]; UACC-62): 2.67 µM
- CC50 ([6]; UACC-62, read-out: LC50): > 100 µM
- GI50 ([6]; UACC-257): 4.92 µM
- CC50 ([6]; UACC-257, read-out: LC50): > 100 µM
- GI50 ([6]; UO-31): 4.03 µM
- CC50 ([6]; UO-31, read-out: LC50): > 100 µM
